Structures can show the parent of a compound that is named as a salt.

The assay has as its target T1, acyl-CoA: cholesterol acyltransferase (ACAT) (Oryctolagus cuniculus, UniProt G1SFD9).
T1 construct: rabbit intestinal microsomal fraction; from tissue; host or cells: rabbit intestinal microsomal fraction
T1 sequence (G1SFD9 1-524): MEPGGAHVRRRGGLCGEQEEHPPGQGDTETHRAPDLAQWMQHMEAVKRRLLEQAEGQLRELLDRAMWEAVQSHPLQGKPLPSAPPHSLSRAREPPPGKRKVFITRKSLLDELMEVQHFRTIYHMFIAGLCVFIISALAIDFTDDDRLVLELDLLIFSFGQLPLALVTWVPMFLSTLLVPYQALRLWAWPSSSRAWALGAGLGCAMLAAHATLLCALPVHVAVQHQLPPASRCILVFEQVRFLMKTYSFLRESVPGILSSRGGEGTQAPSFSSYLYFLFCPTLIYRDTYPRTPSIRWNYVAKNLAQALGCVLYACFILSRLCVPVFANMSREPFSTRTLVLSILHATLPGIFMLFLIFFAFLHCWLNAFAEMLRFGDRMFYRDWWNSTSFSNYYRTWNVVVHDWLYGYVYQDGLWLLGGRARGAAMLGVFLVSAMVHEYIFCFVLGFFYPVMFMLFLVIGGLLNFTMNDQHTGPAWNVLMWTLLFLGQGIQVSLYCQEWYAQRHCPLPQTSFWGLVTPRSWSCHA
As to the kind of experiment: In vitro inhibition of cholesterol esterification by ACAT (cholesteryl oleate formation), rabbit intestinal microsomal fraction. Conditions: endogenous cholesterol of rabbit intestinal microsomal fraction and exogenous 14C-oleoyl-CoA; read-out: IC50 (concentration of test compound required to inhibit cholesteryl oleate formation to 50% of control). The assay is classed as biochemical. The protocol:
The compounds of the present invention were tested for their ability to inhibit the esterification of cholesterol by the enzyme acyl-CoA: cholesterol acyltransferase (ACAT). The data in the table below is expressed as IC50 values, i.e. the concentration of test compound required to inhibit cholesteryl oleate formation to 50% of control.
The in vitro test employed is more fully described in Field, F. J. and Salome, R. G., Biochemica et Biophysica Acta, 712, pp. 557-570 (1982). The assay evaluates the ability of a test compound to inhibit the esterification of cholesterol using endogenous cholesterol of a rabbit intestinal microsomal fraction and exogenous ^14 C-oleoyl-CoA as reactants.
Take `COC(=N)c1cccc(NC(=O)C(C)(C)CCCOc2cc(C)ccc2C)c1` [Example 4g, 5-(2,5-Dimethylphenoxy)-N-[3-(iminomethoxymethyl)phenyl]-2,2-dimethylpentanamide monohydrochloride]: the IC50 was 13 µM.
The same measure for `Cc1ccc(C)c(OCCCC(C)(C)C(=O)Nc2ccc(C)c(CC3=NC(C)(C)CO3)c2)c1` [Example 1d, N-[3-[(4,5-Dihydro-4,4-dimethyl-2-oxazolyl)methyl]-4-methylphenyl]-5-(2,5-dimethylphenoxy)-2,2-dimethylpentanamide]: 1 µM; for `COc1ccc(/C=C/C2=NC(C)(C)CO2)cc1NC(=O)C(C)(C)CCCOc1cc(C)ccc1C` [Example 2b, (E)-N-[5-[2-(4,5-Dihydro-4,4-dimethyl-2-oxazolyl)ethenyl]-2-methoxyphenyl]-5-(2,5-dimethylphenoxy)-2,2-dimethylpentanamide]: 8 µM; for `Cc1ccc(C)c(OCCCC(C)(C)C(=O)Nc2cccc(OCC3=NC(C)(C)CO3)c2)c1` [Example 3a, N-[3-[(4,5-Dihydro-4,4-dimethyl-2-oxazolyl)methoxy]phenyl]-5-(2,5-dimethylphenoxy)-2,2-dimethylpentanamide]: 9.2 µM.
In the case of `Cc1ccc(C)c(OCCCC(C)(C)C(=O)Nc2cccc(C3=NC(C)(C)CO3)c2C)c1` [Example 1, N-[3-(4,5-Dihydro-4,4-dimethyl-2-oxazolyl)-2-methylphenyl]-5-(2,5-dimethylphenoxy)-2,2-dimethylpentanamide] it was 24 µM; in that of `COc1ccc(NC(=O)C(C)(C)CCCOc2cc(C)ccc2C)cc1C1=NC(C)(C)CO1` [Example 4d, N-[3-(4,5-Dihydro-4,4-dimethyl-2-oxazolyl)-4-methoxyphenyl]-5-(2,5-dimethylphenoxy)-2,2-dimethylpentanamide], 19 µM; in that of `Cc1ccc(C)c(OCCCC(C)(C)C(=O)Nc2cccc(C3=NC(C)(C)CO3)c2)c1` [Example 1a, N-[3-(4,5-Dihydro-4,4-dimethyl-2-oxazolyl)phenyl]-5-(2,5-dimethylphenoxy)-2,2-dimethylpentanamide], 22 µM.
In the case of `Cc1ccc(C)c(OCCCC(C)(C)C(=O)Nc2cccc(C3=NCCCO3)c2)c1` [Example 4, N-[3-(5,6-Dihydro-4H-1,3-oxazin-2-yl)phenyl]-5-(2,5-dimethylphenoxy)-2,2-dimethylpentanamide] it was 20 µM; in that of `COc1ccc(CC2=NC(C)(C)CO2)cc1NC(=O)C(C)(C)CCCOc1cc(C)ccc1C` [Example 3, N-[5-[(4,5-Dihydro-4,4-dimethyl-2-oxazolyl)methyl]-2-methoxyphenyl]-5-(2,5-dimethylphenoxy)-2,2-dimethylpentanamide], 5.5 µM; in that of `Cc1ccc(C)c(OCCCC(C)(C)C(=O)Nc2cc(CC3=NC(C)(C)CO3)ccc2C)c1` [Example 3b, N-[5-[(4,5-Dihydro-4,4-dimethyl-2-oxazolyl)methyl]-2-methylphenyl]-5-(2,5-dimethylphenoxy)-2,2-dimethylpentanamide], 0.8 µM.
Turning to `Cc1ccc(C)c(OCCCC(C)(C)C(=O)Nc2cccc(C3=NCCO3)c2C)c1` [Example 1c, N-[3-(4,5-Dihydro-2-oxazolyl)-2-methylphenyl]-5-(2,5-dimethylphenoxy)-2,2-dimethylpentanamide], the IC50 turned out to be 10 µM.
In the case of `Cc1ccc(C)c(OCCCC(C)(C)C(=O)Nc2cccc(-c3ncco3)c2)c1` [Example 4h, 5-(2,5-Dimethylphenoxy)-2,2-dimethyl-N-[3-(2-oxazolyl)phenyl]-pentanamide] it was 23 µM.
In the case of `Cc1ccc(C)c(OCCCC(C)(C)C(=O)Nc2cccc(C=CC3=NC(C)(C)CO3)c2)c1` [Example 2a, N-[3-[2-(4,5-Dihydro-4,4-dimethyl-2-oxazolyl)ethenyl]phenyl]-5-(2,5-dimethylphenoxy)-2,2-dimethylpentanamide] it was 9.4 µM.
Take `COc1ccc(NC(=O)C(C)(C)CCCOc2cc(C)ccc2C)cc1CCC1=NC(C)(C)CO1` [Example 2, N-[3-[2-(4,5-Dihydro-4,4-dimethyl-2-oxazolyl)ethyl]-4-methoxyphenyl]-5-(2,5-dimethylphenoxy)-2,2-dimethylpentanamide]: the IC50 came to 3.7 µM.
The same measure for `COc1ccc(C2=NCCCO2)cc1NC(=O)C(C)(C)CCCOc1cc(C)ccc1C` [Example 4f, N-[5-(5,6-Dihydro-4H-1,3-oxazin-2-yl)-2-methoxyphenyl]-5-(2,5-dimethylphenoxy)-2,2-dimethylpentanamide]: 18 µM; for `Cc1ccc(C)c(OCCCC(C)(C)C(=O)Nc2cccc(-c3nnc(C)o3)c2)c1` [Example 5, 5-(2,5-dimethylphenoxy)-2,2-dimethyl-N-[3-(5-methyl-1,3,4-oxadiazol-2-yl)phenyl]pentanamide]: 21 µM.
For the compound `Cc1ccc(C)c(OCCCC(C)(C)C(=O)Nc2cc(C3=NC(C)(C)CO3)ccc2C)c1` [Example 1b, N-[5-(4,5-Dihydro-4,4-dimethyl-2-oxazolyl)-2-methylphenyl]-5-(2,5-dimethylphenoxy)-2,2-dimethylpentanamide], the IC50 was 5.5 µM.
The same measure for `COc1cc(OC)c(C2=NC(C)(C)CO2)cc1NC(=O)C(C)(C)CCCOc1cc(C)ccc1C` [Example 4e, N-[5-(4,5-Dihydro-4,4-dimethyl-2-oxazolyl)-2,4-dimethoxyphenyl]-5-(2,5-dimethylphenoxy)-2,2-dimethylpentanamide]: 9 µM; for `COc1ccc(C2=NC(C)(C)CO2)cc1NC(=O)C(C)(C)CCCOc1cc(C)ccc1C` [Example 4b, N-[5-(4,5-Dihydro-4,4-dimethyl-2-oxazolyl)-2-methoxyphenyl]-5-(2,5-dimethylphenoxy)-2,2-dimethylpentanamide]: 9 µM.

For the origin of these results see patent publication US4824843A, “Substituted amide inhibitors of cholesterol absorption” (Warner-Lambert Company, priority 1987, dated 1989).
